Test results reported in US20090093509A1, “Methods and Compositions for the Treatment of Pruritus” (priority 2007, published 2009).
Where a name gives a salt, the structure may show the parent alone.

Experiment: pH of aqueous solution
Format: physicochemical
Protocol: The pH of the formulations of the invention are greater than 3 and less than 7. For example, the pH can be 3-7, 3-6, 4-7, 4-6, or 4-5. The pH of the solution and the measured pH of the topical composition may not be the same. For the purposes of this specification, either pH may be relevant but it is preferred that the pH is defined as that in the aqueous phase and not in the final cream. The pH of a 0.1% w/v aqueous solution of nalmefene hydrochloride is 6.13 at 22.5° C.: the corresponding values for 1% and 5% solutions are 5.76 and 4.66.

## C=C1CC[C@@]2(O)[C@H]3Cc4ccc(O)c5c4[C@@]2(CCN3CC2CC2)[C@H]1O5 [nalmefene hydrochloride, 6-methylene-6-desoxy-N-cyclopropylmethyl-14-hydroxydihydronormorphine]
0.1% w/v aqueous solution, 22.5° C.
  pH of aqueous solution: 6.13
1% solution
  pH of aqueous solution: 5.76
5% solution
  pH of aqueous solution: 4.66
